Laboratory results from patent US20100015249A1, “Antitumor agent containing 6'-amidino-2'-naphthyl 4-guanidinobenzoate or salt thereof” (priority 2005, published 2010).

What was measured:
NF-κB = assay: TNF-α-activated NF-κB after FUT treatment; format: cell-based, human; conditions: MDAPanc-28, FUT 80 μg/ml, TNF-α 5 ng/ml
Protocol: After the following treatment on the human pancreas cancer cell line […]-28, plasmatic compartment was prepared and Western blot was performed to examine the expression of phosphorylated FADD, caspase 8, NF-κB and IκBα. […] The same was true for IκBα expression (FIG. 7-c).

[1] = tested on: human pancreas cancer cell line MDAPanc-28; assay: DNA fragmentation assay (apoptosis); format: cell-based; conditions: MDAPanc-28
Protocol: After adding 1000 U/ml of protease K, the sample was further incubated for 5 hours at 50° C. After extracting DNA with phenol/chloroform/isoamyl alcohol, isopropanol and ammonium acetate were added to the collected water-soluble fractions in order to collect precipitates. The precipitates were then rinsed with 70% ethanol and dissolved in Tris-EDTA buffer. Electrophoresis was performed on a 2% agarose gel and DNA bands were confirmed by using ethidium bromide. The present inventors examined the concomitant effect of FUT and TNF-α on apoptosis in cancer cells. After treatment with TNF-α for 24 hours, the human pancreas cancer cell line […]-28 was further cultured for 24 hours with various concentrations of FUT being added. Cells prepared were then subjected to an MTT assay according to the method generally known to calculate the cell survival rates. Also, DNA was extracted to perform a DNA fragmentation assay. More specifically, with regard to the MTT assay, each well was seeded with 2000 cells per 100 μl of culture medium in a 96-well microtiterplate, followed by the above mentioned treatment. […] The absorbance of the samples was measured at 570 nm by using a microplate reader. […] Two independent experiments were performed, and the average was calculated. […]

MMP-9 = assay: Western blot of MMP-9 expression; format: cell-based, human; conditions: MDAPanc-28 cytoplasmic fraction, 0 or 80 μg/ml FUT
Protocol: Cytoplasmic fraction was prepared from the human pancreas cancer cell line […]-28 treated with either 0 μg/ml or 80 μg/ml of FUT. Western blot was performed for the obtained cytoplasmic proteins to examine MMP-2 and MMP-9 expression. More specifically, the experiment was performed by the method described in Example 2. Rabbit polyclonal anti-MMP-2 antibody, goat polyclonal anti-MMP-9 antibody and mouse anti-B-actin antibody (Santa Cruz Biotechnology, Inc.) were used for detection.

`N=C(N)c1ccc2cc(OC(=O)c3ccc(N=C(N)N)cc3)ccc2c1` [FUT, 6-amidino-2-naphthyl p-guanidinobenzoate dimethanesulfonate] was tested, and the “TNF-α-activated NF-κB” value (NF-κB) was “inhibits TNF-α-activated NF-κB”, the “concentration at which DNAs were fragmented (apoptosis induction)” value [1] was no less than 40 µg/mL and the MMP-9 expression (MMP-9) was “inhibited by FUT in a concentration-dependent manner”.
